Reference: US8796244B2, “Imidazopyridine derivatives as inhibitors of receptor tyrosine kinases” (Astex Therapeutics Ltd, priority 2008, dated 2014)
Counter-ions that a name gives are not always drawn. Like-named read-outs stand apart in the source and are kept apart here.

System: parental wild-type Ba/F3 cells
Assay: Ba/F3 (WT) cell proliferation assay (Alamar Blue)
Format: cell-based
Conditions: Mus musculus; for inhibition at 3 µM / inhibition at 10 µM / inhibition at 1 µM: BaF3, read-out: BaF3 WT prolif, % inhibition
[1] = BaF3, 72 hours, Alamar Blue, read-out: BaF3 WT prolif
[2] = BaF3, 72 h, read-out: BaF3 WT prolif (μM)

SMILES | IC50 [1] [µM] | inhibition at 10 µM [%] | further results
CC(C)n1ccnc1C#Cc1ccn2c(-c3cccc(NC(=O)NCC(F)(F)F)c3)cnc2c1 [Compound 266] | 1.4 |  | 
O=C(NCC(F)(F)F)Nc1cccc(-c2cnc3cc(-c4nccc(N5CCNCC5)n4)ccn23)c1 [Compound 269] |  |  | inhibition at 3 µM: 0%
Nc1nc(-c2ccn3c(-c4cccc(NC(=O)NCC(F)(F)F)c4)cnc3c2)ncc1C(=O)O [Compound 277] |  | 0 | 
Cn1ccnc1C#Cc1ccn2c(-c3cccc(NC(=O)NCC(F)(F)F)c3)cnc2c1 [Compound 282] | 2.8 | 23 | 
CCOC(=O)c1cnc(-c2ccn3c(-c4cccc(NC(=O)NCC(F)(F)F)c4)cnc3c2)nc1N [Compound 287] | 0.99 |  | 
COC(=O)c1cnc(-c2ccn3c(-c4cccc(NC(=O)NCC(F)(F)F)c4)cnc3c2)nc1 [Compound 290] |  |  | inhibition at 1 µM: 16%
CC(=O)c1cnc(-c2ccn3c(-c4cccc(NC(=O)NCC(F)(F)F)c4)cnc3c2)nc1 [Compound 292] |  | 38 | 
CC(F)(F)c1cnc(-c2ccn3c(-c4cccc(NC(=O)NCC(F)(F)F)c4)cnc3c2)nc1 [Compound 293] |  |  | inhibition at 3 µM: 36%
O=C(NCC(F)(F)F)Nc1cc(Br)cc(-c2cnc3cc(-c4ccnc(C(F)(F)F)n4)ccn23)c1 [Compound 294] |  |  | inhibition at 3 µM: 22%
O=C(NCC(F)(F)F)Nc1cc(CO)cc(-c2cnc3cc(-c4ccnc(C(F)(F)F)n4)ccn23)c1 [Compound 295] |  | 30 | 
O=C(NCC(F)(F)F)Nc1cc(Cl)cc(-c2cnc3cc(-c4ccnc(C(F)(F)F)n4)ccn23)c1 [Compound 297] | 5.5 |  | 
COc1cc(NC(=O)NCC(F)(F)F)cc(-c2cnc3cc(-c4ccnc(C(F)(F)F)n4)ccn23)c1 [Compound 298] | 3 |  | 
N#Cc1cc(NC(=O)NCC(F)(F)F)cc(-c2cnc3cc(-c4ccnc(C(F)(F)F)n4)ccn23)c1 [Compound 299] |  |  | inhibition at 1 µM: 17%
Nc1nc(-c2ccn3c(-c4cc(Cl)cc(NC(=O)NCC(F)(F)F)c4)cnc3c2)ncc1F [Compound 300] |  | 0 | 
O=C(NCC(F)(F)F)Nc1cc(-c2cnc3cc(-c4ncccn4)ccn23)cc(C(F)(F)F)c1 [Compound 301] | 2.81 |  | 
O=C(NCC(F)(F)F)Nc1cc(F)cc(-c2cnc3cc(-c4ncccn4)ccn23)c1 [Compound 302] |  | 0 | 
O=C(NCC(F)(F)F)Nc1cc(O)cc(-c2cnc3cc(-c4ccnc(C(F)(F)F)n4)ccn23)c1 [Compound 303] |  | 0 | 
Nc1nc(-c2ccn3c(-c4cc(F)cc(NC(=O)NCC(F)(F)F)c4)cnc3c2)ncc1F [Compound 305] |  | 6 | 
CC(=O)c1cnc(-c2ccn3c(-c4cccc(NC(=O)NCC(F)(F)F)c4)cnc3c2)nc1N [Compound 308] |  | 0 | 
O=C(NCC(F)(F)F)Nc1cc(Cl)cc(-c2cnc3cc(-c4ncccn4)ccn23)c1 [Compound 309] | 2.3 |  | 
Nc1cnc(-c2ccn3c(-c4cccc(NC(=O)NCC(F)(F)F)c4)cnc3c2)nc1N [Compound 312] |  | 3 | 
CNc1nc(-c2ccn3c(-c4cccc(NC(=O)NCC(F)(F)F)c4)cnc3c2)ncc1N [Compound 313] |  | 18 | 
CCOC(=O)Nc1nc(-c2ccn3c(-c4cccc(NC(=O)NCC(F)(F)F)c4)cnc3c2)ncc1F [Compound 315] |  | 35 | 
Nc1nc(-c2ccn3c(-c4cccc(NC(=O)NCC(F)(F)F)c4)cnc3c2)ncc1OCCO [Compound 316] |  | 0 | 
CC(C)(C)OC(=O)NCC1CCN(c2ccc(-c3ccn4c(-c5cccc(NC(=O)NCC(F)(F)F)c5)cnc4c3)cn2)CC1 [Compound 318] | 0.42 |  | 
CC(C)(O)c1cccc(-c2ccn3c(-c4cccc(NC(=O)NCC(F)(F)F)c4)cnc3c2)c1 [Compound 320] | 0.71 |  | 

SMILES | IC50 [1] [µM] | inhibition at 10 µM [%] | further results
Nc1cc(C(F)(F)F)nc(-c2ccn3c(-c4cccc(NC(=O)NCC(F)(F)F)c4)cnc3c2)n1 [Compound 322] | 1.2 |  | 
CC(C)c1cc(N)nc(-c2ccn3c(-c4cccc(NC(=O)NCC(F)(F)F)c4)cnc3c2)n1 [Compound 323] |  |  | inhibition at 1 µM: 0%
COCc1cc(N)nc(-c2ccn3c(-c4cccc(NC(=O)NCC(F)(F)F)c4)cnc3c2)n1 [Compound 324] |  | 9.4 | 
Cc1nnc(-c2ccn3c(-c4cccc(NC(N)=O)c4)cnc3c2)o1 [Compound 328] |  |  | inhibition at 3 µM: 34%
Nc1nc(-c2ccn3c(-c4cccc(NC(=O)NCC(F)(F)F)c4)cnc3c2)ncc1CO [Compound 332] |  | 0 | 
O=C(NCC(F)(F)F)Nc1cccc(-c2cnc3cc(-c4ncc(C(=O)O)cn4)ccn23)c1 [Compound 333] |  |  | inhibition at 1 µM: 0%
COCc1cc(-c2ccn3c(-c4cccc(NC(=O)NCC(F)(F)F)c4)cnc3c2)nc(N)n1 [Compound 335] | 0.74 | 20 | 
CC(C)(C(=O)NC1CC1)n1cc(-c2ccn3c(-c4cccc(NC(=O)NCC(F)(F)F)c4)cnc3c2)cn1 [Example 71, N-Cyclopropyl-2-[4-(3-{3-[3-(2,2,2-trifluoro-ethyl)-ureido]-phenyl}-imidazo[1,2-a]pyridin-yl)-pyrazol-1-yl)-isobutyramide] | 1.5 |  | 
Cc1cc2ncc(-c3cccc(NC(=O)NCC(F)(F)F)c3)n2cc1C [Example 77, 1-[3-(6,7-Dimethyl-imidazo[1,2-a]pyridin-3-yl)-phenyl]-3-(2,2,2-trifluoro-ethyl)-urea formate] |  | 53 | 
Nc1nccnc1-c1ccn2c(-c3cccc(NC(=O)NCC(F)(F)F)c3)cnc2c1 [Example 84, 1-{3-[7-(3-Amino-pyrazin-2-yl)-imidazo[1,2-a]pyridin-3-yl]-phenyl}-3-(2,2,2-trifluoro-ethyl)-urea] | 1.4 |  | 
O=C(NCC(F)(F)F)Nc1cccc(-c2cnc3cc(-c4cc(F)ccn4)ccn23)c1 [Example 103, 1-{3-[7-(4-Fluoro-pyridin-2-yl)-imidazo[1,2-a]pyridin-3-yl]-phenyl}-3-(2,2,2-trifluoro-ethyl)-urea] | 0.078 |  | 
Cc1cccnc1-c1ccn2c(-c3cccc(NC(=O)NCC(F)(F)F)c3)cnc2c1 [Example 104, 1-{3-[7-(3-Methyl-pyridin-2-yl)-imidazo[1,2-a]pyridin-3-yl]-phenyl}-3-(2,2,2-trifluoro-ethyl)-urea formate] |  |  | IC50 [2]: 0.4 µM
O=C(NCC(F)(F)F)Nc1cccc(-c2cnc3cc(-c4cnc(O)cn4)ccn23)c1 [Example 105, 1-{3-[7-(5-Hydroxy-pyrazin-2-yl)-imidazo[1,2-a]pyridin-3-yl]-phenyl}-3-(2,2,2-trifluoro-ethyl)-urea hydrochloride] |  | 16 | 
Nc1cccc(-c2ccn3c(-c4cccc(NC(=O)NCC(F)(F)F)c4)cnc3c2)n1 [Example 106, 1-{3-[7-(6-Amino-pyridin-2-yl)-imidazo[1,2-a]pyridin-3-yl]-phenyl}-3-(2,2,2-trifluoro-ethyl)-urea hydrochloride] |  |  | IC50 [2]: 0.41 µM
O=C(NCC(F)(F)F)Nc1cccc(-c2cnc3cc(-c4cccc(CCO)c4)ccn23)c1 [Example 107, 1-(3-{7-[3-(2-Hydroxy-ethyl)-phenyl]-imidazo[1,2-a]pyridin-yl}-phenyl)-3-(2,2,2-trifluoro-ethyl)-urea formate] |  |  | IC50 [2]: 0.89 µM
O=C(NCC(F)(F)F)Nc1cccc(-c2cnc3cc(-c4nccc(N5CCC(O)CC5)n4)ccn23)c1 [Example 109, 1-(3-{7-[4-(4-Hydroxy-piperidin-1-yl)-pyrimidin-2-yl]-imidazo[1,2-a]pyridin-3-yl}-phenyl)-3-(2,2,2-trifluoro-ethyl)-urea] | 32 |  | 
Cc1nnc(-c2ccn3c(-c4cccc(NC(=O)NCC(F)(F)F)c4)cnc3c2)nc1C [Example 118, 1-{3-[7-(5,6-Dimethyl-[1,2,4]triazin-3-yl)-imidazo[1,2-a]pyridin-3-yl]-phenyl}-3-(2,2,2-trifluoro-ethyl)-urea hydrochloride] |  |  | IC50 [2]: 0.88 µM
NC(=O)Nc1cccc(-c2cnc3cc(Cl)ccn23)c1 [Example 119, [3-(7-Chloro-imidazo[1,2-a]pyridin-3-yl)-phenyl]-urea] |  |  | inhibition at 3 µM: 23%
CN(C)c1ccnc(-c2ccn3c(-c4cccc(NC(=O)NCC(F)(F)F)c4)cnc3c2)n1 [Example 120, 1-{3-[7-(4-Dimethylamino-pyrimidin-2-yl)-imidazo[1,2-a]pyridin-3-yl]-phenyl}-3-(2,2,2-trifluoro-ethyl)-urea hydrochloride] |  |  | IC50 [2]: 1.1 µM
O=C(NCC(F)(F)F)Nc1cccc(-c2cnc3cc(-c4ccc(CCO)cn4)ccn23)c1 [Example 122, 1-(3-{7-[5-(2-Hydroxy-ethyl)-pyridin-2-yl]-imidazo[1,2-a]pyridin-3-yl}-phenyl)-3-(2,2,2-trifluoro-ethyl)-urea] | 2.4 |  | 
O=C(NCC(F)(F)F)Nc1cncc(-c2cnc3cc(-c4cnn(C5CNC5)c4)ccn23)c1 [Example 123, 1-{5-[7-(1-Azetidin-3-yl-1H-pyrazol-4-yl)-imidazo[1,2-a]pyridin-3-yl]-pyridin-3-yl}-3-(2,2,2-trifluoro-ethyl)-urea formate] |  |  | IC50 [2]: 8.9 µM
Nc1cccnc1-c1ccn2c(-c3cccc(NC(=O)NCC(F)(F)F)c3)cnc2c1 [Example 125, 1-{3-[7-(3-Amino-pyridin-2-yl)-imidazo[1,2-a]pyridin-3-yl]-phenyl}-3-(2,2,2-trifluoro-ethyl)-urea hydrochloride] |  |  | IC50 [2]: 2.1 µM
O=C(NCC(F)(F)F)Nc1cccc(-c2cnc3cc(-c4ccc(OC5CCNCC5)nn4)ccn23)c1 [Example 130, 1-(3-{7-[6-(Piperidin-4-yloxy)-pyridazin-3-yl]-imidazo[1,2-a]pyridin-3-yl}-phenyl)-3-(2,2,2-trifluoro-ethyl)-urea] |  | 26 | 
O=C(NCC(F)(F)F)Nc1cccc(-c2cnc3cc(-c4ccc(OC5CCCNC5)nn4)ccn23)c1 (centres unmarked) [Example 131, 1-(3-{7-[6-(Piperidin-3-yloxy)-pyridazin-3-yl]-imidazo[1,2-a]pyridin-3-yl}-phenyl)-3-(2,2,2-trifluoro-ethyl)-urea] |  | 2.9 | 
Cc1cc(-c2ccn3c(-c4cccc(NC(=O)NCC(F)(F)F)c4)cnc3c2)nnc1Cl [Example 135, 1-{3-[7-(6-Chloro-5-methyl-pyridazin-3-yl)-imidazo[1,2-a]pyridin-3-yl]-phenyl}-3-(2,2,2-trifluoro-ethyl)-urea] | 0.51 |  | 
